Structures can show the parent of a compound that is named as a salt.
What was measured:
[1] = In vivo evaluation of efficacy in treating psoriasis; conditions: moderate to severe psoriasis; documented (cited) procedures
Description: Compounds encompassed by structural formula (I) are evaluated in vivo for their efficacy in treating psoriasis. The methods of the following references are used in the evaluation: Berardesca et al., "Non-invasive Evaluation of Topical Calcipotriol versus Clobetasol in the Treatment of Psoriasis," Acta Derm Venereol (Stokh) 74:302-304 (1994); Elias et al., "A Controlled Trial of Topical Propylthiouracil in the Treatment of Patients with Psoriasis," J. Amer. Acad. Dermatol. 31(3):455-458; and Highton et al., "Calcipotriene Ointment 0.005% for Psoriasis: A Safety and Efficacy Study," J. Amer. Acad. Dermatol. 32(1):67-72 (1995).

[2] = system: Human foreskin keratinocytes; experiment: Mitotic activity of epidermal keratinocytes: inhibition of 3H-TdR incorporation into DNA; type: cell-based
Description: The mitotic activity of epidermal keratinocytes is one of the most obvious histological features of the psoriatic lesion. Many cytotoxic drugs used to treat the disease are believed to function by direct inhibition of keratinocyte replication.
Human foreskin keratinocytes were cultured in KGM. When the dishes were approximately 50% covered by cells, SG was added to give final concentrations of 5×10^-5 to 5×10^-9 M. After 3 days, the cells were pulsed with ^3 H-TdR for 4 hours, and incorporation into DNA assayed by conventional means. The inhibition of incorporation in 2 experiments was as follows: […]

[3] = system: human skin microvascular endothelial cells; experiment: Effect on morphology and growth of endothelial cell cultures; type: cell-based
Description: Skin endothelial cells in psoriasis are intimately involved in initiating the inflammatory response. Agents which affect both the binding of T lymphocytes and the hyperproliferation of endothelial cells would be expected to have a major effect in controlling the skin lesions.
In this study, human skin microvascular endothelial cells were isolated both from foreskins removed at circumcision and from skin obtained following a facial cosmetic correction. The endothelial cells were grown in a modified Iscove's medium, and while in the growth phase, the effect of varying concentrations of spirogermanium was studied on both the morphology and the growth of the endothelial cell cultures. Final concentrations of spirogermanium in the growth medium were 1,000, 500, 100, 50, 10, 1.0 and 0.125 μg/ml.

[4] = hydrochloride salt, cited from earlier work

Row | SMILES | efficacy in treating psoriasis [1] | inhibition of DNA synthesis in keratinocytes (in words) [2] | cell death ([3]; 0.125 μg/ml, after 1 week) | endothelial cell morphology ([3]; 10 μg/ml) | endothelial cell morphology ([3]; highest concentrations) | solubility in 95% ethanol ([4]; 95% ethanol) | solubility in water ([4]; water)
1 | C[CH2][Ge]1([CH2]C)[CH2]CC2(CCN(CCCN(C)C)C2)C[CH2]1 [SG] | effective for treating moderate to severe psoriasis | very potent inhibitor of DNA synthesis in keratinocytes | cell death was observed after 1 week | vacuolization was observed before desquamation and ultimate cell death | immediately rounded up and detached from the dish surface | – | –
2 | C[CH2][Ge]1([CH2]C)[CH2]CC2(CCN(CCCN(C)C)C2)C[CH2]1 [spirogermanium HCl] | – | – | – | – | – | freely soluble | freely soluble
